{
  "source": "PubChem BioAssay AID248",
  "about": "(DTP/NCI, 2004)",
  "tested_on": "L1210 leukemia ip in BDF1 mice, survival T/C",
  "assay": "NCI In Vivo Anticancer Drug Screen. Data for tumor model L1210 Leukemia (intraperitoneal) in B6D2F1 (BDF1) mice",
  "details": "endpoint: mean survival time, higher = longer survival",
  "in_short": "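Transplantable tumor model; survival measured in treated vs vehicle control mice. Value = treated/control.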",
  "key": {"[1]": {"details": "dose: 50.0 mg/kg/injection, schedule: Q01DX001 (ip), vehicle: carboxymethylcellulose (CMC)"}, "[2]": {"details": "dose: 100.0 mg/kg/injection, schedule: Q01DX001 (ip), vehicle: carboxymethylcellulose (CMC)"}, "[3]": {"details": "dose: 200.0 mg/kg/injection, schedule: Q01DX001 (ip), vehicle: carboxymethylcellulose (CMC)"}, "[4]": {"details": "dose: 400.0 mg/kg/injection, schedule: Q01DX001 (ip), vehicle: carboxymethylcellulose (CMC)"}, "[5]": {"details": "dose: 100.0 mg/kg/injection, schedule: Q04DX003 (ip), vehicle: saline with Tween-80"}, "[6]": {"details": "dose: 200.0 mg/kg/injection, schedule: Q04DX003 (ip), vehicle: saline with Tween-80"}, "[7]": {"details": "dose: 100.0 mg/kg/injection, schedule: Q01DX001 (ip), vehicle: saline"}, "[8]": {"details": "dose: 200.0 mg/kg/injection, schedule: Q01DX001 (ip), vehicle: saline"}, "[9]": {"details": "dose: 400.0 mg/kg/injection, schedule: Q01DX001 (ip), vehicle: saline"}},
  "note": "Inconclusive results and toxic doses are left out.",
  "data": [
    {"compound": "Nc1nc(=S)c2ncn(C3OC(COC(=O)c4ccc(Cl)cc4)C(OC(=O)c4ccc(Cl)cc4)C3OC(=O)c3ccc(Cl)cc3)c2[nH]1", "note": "(stereo unspecified)", "values": [
      {"measurement": "T/C", "setting": "dose: 3.5 mg/kg/injection, schedule: Q01DX Z (ip), vehicle: carboxymethylcellulose (CMC)", "value": "113 % of control"},
      {"measurement": "T/C", "setting": "dose: 12.0 mg/kg/injection, schedule: Q01DX Z (ip), vehicle: carboxymethylcellulose (CMC)", "value": "156 % of control"},
      {"measurement": "T/C", "setting": "dose: 12.0 mg/kg/injection, schedule: Q01DX Z (ip), vehicle: saline", "value": "170 % of control"},
      {"measurement": "T/C", "setting": "dose: 19.0 mg/kg/injection, schedule: Q01DX Z (ip), vehicle: carboxymethylcellulose (CMC)", "value": "115 % of control"},
      {"measurement": "T/C", "setting": "dose: 44.0 mg/kg/injection, schedule: Q01DX Z (ip), vehicle: carboxymethylcellulose (CMC)", "value": "150 % of control"},
      {"measurement": "T/C", "setting": "dose: 50.0 mg/kg/injection, schedule: Q01DX Z (ip), vehicle: saline", "value": "114 % of control"},
      {"measurement": "T/C", "setting": "dose: 150.0 mg/kg/injection, schedule: Q01DX Z (ip), vehicle: carboxymethylcellulose (CMC)", "value": "108 % of control"}
    ]},
    {"compound": "CC(=O)c1csc2ccccc12", "values": [
      {"measurement": "T/C", "setting": "dose: 12.5 mg/kg/injection, schedule: Q01DX009 (ip), vehicle: Klucel (hydroxypropylcellulose) (HPC)", "value": "106 % of control"},
      {"measurement": "T/C", "setting": "dose: 25.0 mg/kg/injection, schedule: Q01DX009 (ip), vehicle: Klucel (hydroxypropylcellulose) (HPC)", "value": "101 % of control"},
      {"measurement": "T/C", "setting": "dose: 50.0 mg/kg/injection, schedule: Q01DX009 (ip), vehicle: Klucel (hydroxypropylcellulose) (HPC)", "value": "106 % of control"}
    ]},
    {"compound": "COc1ccc(/C(C#N)=C2C=C/C(=N/O)c3ccccc3\\2)cc1", "values": [
      {"measurement": "T/C", "setting": "[1]", "value": "92 % of control"},
      {"measurement": "T/C", "setting": "[2]", "value": "92 % of control"},
      {"measurement": "T/C", "setting": "[3]", "value": "87 % of control"},
      {"measurement": "T/C", "setting": "[4]", "value": "89 % of control"}
    ]},
    {"compound": "COC1OC(COC(c2ccccc2)(c2ccccc2)c2ccccc2)C2SC12", "note": "(stereo unspecified)", "values": [
      {"measurement": "T/C", "setting": "[1]", "value": "102 % of control"},
      {"measurement": "T/C", "setting": "[2]", "value": "107 % of control"},
      {"measurement": "T/C", "setting": "[3]", "value": "100 % of control"},
      {"measurement": "T/C", "setting": "[4]", "value": "96 % of control"}
    ]},
    {"compound": "C#CCOCC(CCl)OC(N)=O", "note": "(stereo unspecified)", "values": [
      {"measurement": "T/C", "setting": "dose: 50.0 mg/kg/injection, schedule: Q01DX009 (ip), vehicle: saline with Tween-80", "value": "121 % of control"},
      {"measurement": "T/C", "setting": "dose: 50.0 mg/kg/injection, schedule: Q04DX003 (ip), vehicle: saline with Tween-80", "value": "104 % of control"},
      {"measurement": "T/C", "setting": "dose: 100.0 mg/kg/injection, schedule: Q01DX009 (ip), vehicle: saline with Tween-80", "value": "105 % of control"},
      {"measurement": "T/C", "setting": "[5]", "value": "101 % of control"},
      {"measurement": "T/C", "setting": "dose: 200.0 mg/kg/injection, schedule: Q01DX009 (ip), vehicle: saline with Tween-80", "value": "106 % of control"},
      {"measurement": "T/C", "setting": "[6]", "value": "110 % of control"}
    ]},
    {"compound": "c1ccc(-c2cnsc2)cc1", "values": [
      {"measurement": "T/C", "setting": "[3]", "value": "95 % of control"},
      {"measurement": "T/C", "setting": "[4]", "value": "100 % of control"}
    ]},
    {"compound": "CC(=O)NC1CCC(O)CC1", "note": "(stereo unspecified)", "values": [
      {"measurement": "T/C", "setting": "[7]", "value": "104 % of control"},
      {"measurement": "T/C", "setting": "[8]", "value": "94 % of control"},
      {"measurement": "T/C", "setting": "[9]", "value": "107 % of control"}
    ]},
    {"compound": "C[C@]12CC[C@H](O)C[C@H]1CC[C@@H]1[C@@H]2CC[C@]2(C)[C@@H](C3=CC(=O)OC3)[C@@H](O)C[C@]12O", "values": [
      {"measurement": "T/C", "setting": "[1]", "value": "101 % of control"},
      {"measurement": "T/C", "setting": "[2]", "value": "107 % of control"},
      {"measurement": "T/C", "setting": "[3]", "value": "101 % of control"},
      {"measurement": "T/C", "setting": "[4]", "value": "102 % of control"}
    ]},
    {"compound": "CCN(CC)C(=S)[S][Pb]([c]1ccccc1)([c]1ccccc1)[c]1ccccc1", "values": [
      {"measurement": "T/C", "setting": "dose: 100.0 mg/kg/injection, schedule: Q01DX001 (ip), vehicle: steriod suspending solution", "value": "97 % of control"},
      {"measurement": "T/C", "setting": "dose: 200.0 mg/kg/injection, schedule: Q01DX001 (ip), vehicle: steriod suspending solution", "value": "92 % of control"}
    ]},
    {"compound": "CC(=O)OCC(=O)[C@@]12OC(C)(C)O[C@@H]1C[C@H]1[C@@H]3CC(C=O)=C4C=C(OCCCl)CC[C@]4(C)[C@@]3(F)[C@@H](O)C[C@@]12C", "values": [
      {"measurement": "T/C", "setting": "dose: 100.0 mg/kg/injection, schedule: Q01DX009 (ip), vehicle: Klucel (hydroxypropylcellulose) (HPC)", "value": "95 % of control"}
    ]},
    {"compound": "C=C[Si](C)(OCC)OCC", "values": [
      {"measurement": "T/C", "setting": "[7]", "value": "93 % of control"},
      {"measurement": "T/C", "setting": "[8]", "value": "90 % of control"},
      {"measurement": "T/C", "setting": "[9]", "value": "101 % of control"}
    ]},
    {"compound": "Cc1[nH]nc(C(=O)O)c1Br", "values": [
      {"measurement": "T/C", "setting": "dose: 25.0 mg/kg/injection, schedule: Q01DX005 (ip), vehicle: saline", "value": "100 % of control"},
      {"measurement": "T/C", "setting": "dose: 50.0 mg/kg/injection, schedule: Q01DX005 (ip), vehicle: saline", "value": "105 % of control"},
      {"measurement": "T/C", "setting": "dose: 100.0 mg/kg/injection, schedule: Q01DX005 (ip), vehicle: saline", "value": "122 % of control"},
      {"measurement": "T/C", "setting": "dose: 200.0 mg/kg/injection, schedule: Q01DX005 (ip), vehicle: saline", "value": "102 % of control"},
      {"measurement": "T/C", "setting": "dose: 400.0 mg/kg/injection, schedule: Q01DX005 (ip), vehicle: saline", "value": "113 % of control"}
    ]},
    {"compound": "CC(=O)c1cccc(OC(=O)c2ccccc2)c1", "values": [
      {"measurement": "T/C", "setting": "dose: 50.0 mg/kg/injection, schedule: Q01DX001 (ip), vehicle: saline", "value": "112 % of control"},
      {"measurement": "T/C", "setting": "[7]", "value": "106 % of control"},
      {"measurement": "T/C", "setting": "[8]", "value": "104 % of control"},
      {"measurement": "T/C", "setting": "[9]", "value": "104 % of control"}
    ]},
    {"compound": "CCOC(c1ccccc1)(c1ccccc1)c1ccccc1", "values": [
      {"measurement": "T/C", "setting": "[5]", "value": "101 % of control"},
      {"measurement": "T/C", "setting": "[6]", "value": "90 % of control"},
      {"measurement": "T/C", "setting": "dose: 400.0 mg/kg/injection, schedule: Q04DX003 (ip), vehicle: saline with Tween-80", "value": "91 % of control"}
    ]}
  ]
}
